For 37 compounds, Activity results are on record in ChEMBL document CHEMBL3621195, “Analogues of the marine alkaloids oroidin, clathrodin, and hymenidin induce apoptosis in human HepG2 and THP-1 cancer cells” (Medchemcomm, 2015).

Molecules are shown by their SMILES.

This experiment deals with HepG2. In words: Induction of apoptosis in human HepG2 cells at 50 uM incubated for 24 hrs by Annexin V-FITC and propidium iodide staining based microcapillary flow cytometry. It counts as functional. For orientation: A flow cytometer gives signals particle by particle.
`Cc1c(NC(=O)c2cc3ccccc3o2)cccc1-n1cnnn1` displayed an Activity of 45%.

Regarding `CC(C)(C)OC(=O)n1cc(-c2ccc(NC(=O)c3ccc[nH]3)cc2)nc1N`, the Activity is on record as 24%.

The compound `Cl.Nc1nc(-c2ccc(NC(=O)c3ccc[nH]3)cc2)c[nH]1` returned an Activity of 20%.

Regarding `CC(C)(C)OC(=O)n1cc(-c2ccc(NC(=O)c3cc4ccccc4[nH]3)cc2)nc1N`, the Activity stood at 90%.

As for `Cl.Nc1nc(-c2cccc(NC(=O)c3cc4ccccc4[nH]3)c2)c[nH]1`, the Activity came to 77%.

`Cl.Nc1nc(-c2cccc(NC(=O)c3cc4cc(O)ccc4[nH]3)c2)c[nH]1`: the Activity was determined as 19%.

With `O=C(Nc1cccc(-c2ccn[nH]2)c1)c1cc2ccccc2[nH]1`, the Activity came to 68%.

In the case of `Nc1nc(-c2cccc(NC(=O)c3ccc[nH]3)c2)cn1Cc1ccccc1`, the Activity was 54%.

`CC(C)(C)OC(=O)n1cc(-c2ccc(NCc3c[nH]cn3)cc2)nc1N` had an Activity of 39%.

As for `CNC1=NC(c2cccc(NC(=O)c3ccco3)c2)CN1.Cl` (configuration not stated), the Activity was 28%.

As for `Nc1nc(-c2cccc(NCc3ccc[nH]3)c2)cn1Cc1ccccc1`, the Activity is reported as 86%.

`CC(C)(C)OC(=O)n1cc(-c2ccc(NCc3ccc[nH]3)cc2)nc1N` gave an Activity of 34%.

`CC(C)(C)OC(=O)N1CCC[C@H]1C(=O)Nc1ccc(-c2cn(C(=O)OC(C)(C)C)c(N)n2)cc1` came in with an Activity of 20%.

The compound `CC(C)(C)OC(=O)N1CCC[C@@H]1C(=O)Nc1ccc(-c2cn(C(=O)OC(C)(C)C)c(N)n2)cc1` yielded an Activity of 23%.

Regarding `COCc1c(C(=O)Nc2cccc(-c3ccn[nH]3)c2)sc2cccc(F)c12`, the Activity is 65%.

`O=C(Nc1cccc(-c2ccn[nH]2)c1)c1ccc2[nH]nnc2c1`: the Activity was determined as 20%.

With `Cl.Nc1nc(-c2cccc(NC(=O)c3cc[nH]c3)c2)c[nH]1`, the Activity is listed as 16%.

`CNC1=NC(c2cccc(NC(=O)c3ccc[nH]3)c2)CN1.Cl` (configuration not stated): the Activity worked out at 28%.

`CNC1=NC(c2cccc(NC(=O)c3cc4ccccc4[nH]3)c2)CN1.Cl` (configuration not stated): the Activity is recorded as 27%.

Compound `O=C1CCc2cc(C(=O)Nc3cccc(-c4ccn[nH]4)c3)ccc2N1` gave an Activity of 26%.

`Cc1nc(-c2cccc(NC(=O)c3cc4ccccc4[nH]3)c2)cs1` returned an Activity of 57%.

The compound `Cl.Cl.Nc1nc(-c2ccc(NC(=O)[C@@H]3CCCN3)cc2)c[nH]1` gave an Activity of 22%.

On to `O=C(Nc1cccc(-c2ccn[nH]2)c1)c1cc2ccccc2o1`, for which the Activity is given as 40%.

As for `O=C(Nc1cccc(-c2ccn[nH]2)c1)c1ccc2[nH]cnc2c1`, the Activity worked out at 47%.

The compound `Cc1cc(C)n2nc(C(=O)Nc3cccc(-c4ccn[nH]4)c3)nc2n1` gave an Activity of 31%.

`O=C(Nc1cccc(-c2ccn[nH]2)c1)c1cc2ccccc2c(=O)[nH]1` gave an Activity of 91%.

On to `Cc1nc(-c2cccc(NC(=O)c3cn4ccccc4n3)c2)cs1`, for which the Activity is recorded as 25%.

For `CCn1cnnc1-c1cccc(NC(=O)c2cc3ccc(C)cc3[nH]2)c1`, the Activity was 55%.

The compound `O=C(Nc1cccc(-n2cnnn2)c1)c1cc2ccccc2[nH]1` had an Activity of 56%.

`O=C(Nc1cccc(-n2cnnn2)c1)c1cn2ccccc2n1` yielded an Activity of 27%.

`O=C(NC1CC1)c1cccc(NC(=O)c2cc3c(F)cccc3[nH]2)c1` returned an Activity of 51%.

Compound `Cc1cc(=O)[nH]c(-c2cccc(NC(=O)c3ccc(N(C)C)cc3)c2)n1` yielded an Activity of 37%.

`Cc1ccn2cc(C(=O)Nc3cccc(-c4nnco4)c3)nc2c1` returned an Activity of 6%.

In turn, `CCn1nnnc1-c1cccc(NC(=O)c2cc3ccccc3[nH]2)c1` displayed an Activity of 28%.

For the compound `O=C(Nc1cccc(-n2cnnn2)c1)c1cc2c(F)cccc2s1`, the Activity turned out to be 39%.

Take `Cc1ccc2cc(C(=O)Nc3cccc(C(N)=O)c3)[nH]c2c1`: the Activity is given as 66%.

Turning to `O=C(Nc1cccc(N2CCCC2=O)c1)c1cc2ccccc2[nH]1`, the Activity was determined as 43%.
